SMILES strings stand for the structures. Where a name gives a salt, the structure may show the parent alone.

In the test the test system is bacterial strains that express KPC β-lactamases. The test can be described thus: Synergy MIC / standard BLI potentiation MIC assay against strains expressing KPC β-lactamases. Type of test: cell-based. Particulars: in the presence of a β-lactam; comparator Avibactam. As for the experimental part:
The experimental protocol was performed according to Clinical and Laboratory Standards Institute (CLSI) guidelines with modifications as described below (CLSI guidelines can be derived from the CLSI document M07-A9 published in January 2012: “Methods for Dilution Antimicrobial Susceptibility Tests for Bacteria That Grow Aerobically; Approved Standard-Ninth Edition”).
To prepare for MIC testing, frozen glycerol stocks of clinical isolates (Klebsiella pneumoniae, Eschericia coli, Enterobacter spp, Citrobacter spp, or Pseudomonas aeruginosa) were used to streak for isolated colonies on rich, non-selective, tryptic soy agar containing 5% sheep's blood (TSAB). Frozen glycerol stocks of laboratory engineered, isogenic E. coli strains, which contain cloned β-lactamase expressing plasmids were used to streak for isolated colonies on rich, selective LB agar supplemented with 25 μg/mL tetracycline to maintain the plasmid. All strains were incubated at 37° C. for 18-24 hrs.
On the day of testing, primary cultures were started by scraping off 5-10 colonies from the TSAB plates containing clinical strains or the tetracycline supplemented LB plates containing engineered strains. The clinical strain material was suspended in ˜5 mL of cation adjusted Mueller Hinton Broth (CAMHB) in 14 mL culture tubes. The engineered strain material was suspended in CAMHB (supplemented with 25 μg/mL tetracycline) in 14 mL culture tubes. All strains were incubated at 37° C. with aeration (200 rpm) for ˜2 hrs until the optical density at 600 nm (OD600) was >0.1.
The two compound components of the assay were each diluted in CAMHB and added to the 96-well broth microdilution assay plates. 50 μL of the β-lactam was added to each well of the assay plate in 2-fold dilutions with final concentrations ranging from 128 to 0.13 μg/mL. 25 μL, of the BLI compound was added to all wells in the broth microdilution plates at a final concentration of 4 μg/mL. Inoculum cultures were prepared by standardizing the primary cultures to OD600=0.1 and then adding 20 μL of the adjusted primary culture per 1 mL CAMHB for clinical strains or CAMHB (supplemented with tetracycline at 100 μg/mL) for engineered strains, so that the final inoculum density was ˜10^5 colony forming units per milliliter. Diluted inoculum cultures were used to inoculate 25 μl, per well in 96-well broth microdilution assay plates. The final volume of each well was 100 μL and contained a β-lactam at different concentrations, a BLIcompound at 4 μg/mL concentration, the bacterial culture at an OD600 of approximately 0.001 and when necessary tetracycline at 25 μg/mL.
Plates were incubated for 18-20 hours at 37° C. with aeration (200 rpm). Following incubation, growth was confirmed visually placing plates over a viewing apparatus (stand with a mirror underneath) and then OD600 was measured using a SpectraMax 340PC384 plate reader (Molecular Devices, Sunnyvale, Calif.). Growth was defined as turbidity that could be detected with the naked eye or achieving minimum OD600 of 0.1. MIC values were defined as the lowest concentration producing no visible turbidity.
The synergy MIC (sMIC) assay determines the concentration of the BLI required to potentiate the activity of a fixed concentration of a β-lactam antibiotic against β-lactamase producing bacterial strains. The experimental protocol was performed according to Clinical and Laboratory Standards Institute (CLSI) guidelines with modifications as described below (CLSI guidelines can be derived from the CLSI document M07-A9 published in January 2012: “Methods for Dilution Antimicrobial Susceptibility Tests for Bacteria That Grow Aerobically; Approved Standard-Ninth Edition”). […]
Turning to `O=C1N2C[C@@H](CC[C@H]2c2nnc(CN[C@@H]3CCNC3)o2)N1OS(=O)(=O)O` [Compound 766, (2S,5R)-7-oxo-2-(5-(((R)-pyrrolidin-3-ylamino)methyl)-1,3,4-oxadiazol-2-yl)-1,6-diazabicyclo[3.2.1]octan-6-yl hydrogen sulfate], the “more active than Avibactam for at least one bacterial strain that expresses KPC β-lactamase and/or better spectrum of activity against KPC strains” value (from here on “more active than Avibactam … against KPC strains”) was “more active than Avibactam”. The result for `N[C@H]1C[C@H](c2nnc([C@@H]3CC[C@@H]4CN3C(=O)N4OS(=O)(=O)O)s2)C1` [Compound 783, (2S,5R)-2-(5-((1r,3S)-3-aminocyclobutyl)-1,3,4-thiadiazol-2-yl)-7-oxo-1,6-diazabicyclo[3.2.1]octan-6-yl hydrogen sulfate] reads “more active than Avibactam”; that for `N=C(N)N[C@H]1C[C@@H](c2nnc([C@@H]3CC[C@@H]4CN3C(=O)N4OS(=O)(=O)O)o2)C1` [Compound 749, 2S,5R)-2-(5-((1s,3R)-3-guanidinocyclobutyl)-1,3,4-oxadiazol-2-yl)-7-oxo-1,6-diazabicyclo[3.2.1]octan-6-yl hydrogen sulfate], “more active than Avibactam”; that for `N=C(N)NCC(O)Cc1nnc([C@@H]2CC[C@@H]3CN2C(=O)N3OS(=O)(=O)O)o1` (stereo partly drawn) [Compound 730, (2S,5R)-2-(5-(3-guanidino-2-hydroxypropyl)-1,3,4-oxadiazol-2-yl)-7-oxo-1,6-diazabicyclo[3.2.1]octan-6-yl hydrogen sulfate], “more active than Avibactam”. In the case of `O=C1N2C[C@@H](CC[C@H]2c2nnc(CN[C@H]3CCNC3)o2)N1OS(=O)(=O)O` [Compound 765, (2S,5R)-7-oxo-2-(5-(((S)-pyrrolidin-3-ylamino)methyl)-1,3,4-oxadiazol-2-yl)-1,6-diazabicyclo[3.2.1]octan-6-yl hydrogen sulfate] it was “more active than Avibactam”; in that of `O=C1N2C[C@@H](CC[C@H]2c2nnc(CCCC3CNC3)o2)N1OS(=O)(=O)O` [Compound 743, (2S,5R)-2-(5-(3-(azetidin-3-yl)propyl)-1,3,4-oxadiazol-2-yl)-7-oxo-1,6-diazabicyclo[3.2.1]octan-6-yl hydrogen sulfate], “more active than Avibactam”. For `NC1CCN(Cc2nnc([C@@H]3CC[C@@H]4CN3C(=O)N4OS(=O)(=O)O)o2)CC1` [Compound 774, (2S,5R)-2-(5-((4-aminopiperidin-1-yl)methyl)-1,3,4-oxadiazol-2-yl)-7-oxo-1,6-diazabicyclo[3.2.1]octan-6-yl hydrogen sulfate], the “more active than Avibactam … against KPC strains” value is “more active than Avibactam”.

For `N=C(N)NCCc1nnc([C@@H]2CC[C@@H]3CN2C(=O)N3OS(=O)(=O)O)o1` [Compound 705, (2S,5R)-2-(5-(2-guanidinoethyl)-1,3,4-oxadiazol-2-yl)-7-oxo-1,6-diazabicyclo[3.2.1]octan-6-yl hydrogen sulfate], the “more active than Avibactam … against KPC strains” value is “more active than Avibactam”.

As to `N[C@@H]1CC[C@H](c2nnc([C@@H]3CC[C@@H]4CN3C(=O)N4OS(=O)(=O)O)o2)C1` [Compound 729, (2S,5R)-2-(5-((1S,3R)-3-aminocyclopentyl)-1,3,4-oxadiazol-2-yl)-7-oxo-1,6-diazabicyclo[3.2.1]octan-6-yl hydrogen sulfate], the “more active than Avibactam … against KPC strains” value is given as “more active than Avibactam”. Take `N=C(N)N1CC(Cc2nnc([C@@H]3CC[C@@H]4CN3C(=O)N4OS(=O)(=O)O)o2)C1` [Compound 741, (2S,5R)-2-(5-((1-carbamimidoylazetidin-3-yl)methyl)-1,3,4-oxadiazol-2-yl)-7-oxo-1,6-diazabicyclo[3.2.1]octan-6-yl hydrogen sulfate]: the “more active than Avibactam … against KPC strains” value is “more active than Avibactam”. Turning to `N=C(N)Nc1nnc([C@@H]2CC[C@@H]3CN2C(=O)N3OS(=O)(=O)O)o1` [Compound 738, (2S,5R)-2-(5-guanidino-1,3,4-oxadiazol-2-yl)-7-oxo-1,6-diazabicyclo[3.2.1]octan-6-yl hydrogen sulfate], the “more active than Avibactam … against KPC strains” value was “more active than Avibactam”. On to `N=C(N)N[C@H]1C[C@@H](c2nnc([C@@H]3CC[C@@H]4CN3C(=O)N4OS(=O)(=O)O)s2)C1` [Compound 784, (2S,5R)-2-(5-((1s,3R)-3-guanidinocyclobutyl)-1,3,4-thiadiazol-2-yl)-7-oxo-1,6-diazabicyclo[3.2.1]octan-6-yl hydrogen sulfate], for which the “more active than Avibactam … against KPC strains” value is given as “more active than Avibactam”.

In the case of `CNCCc1nnc([C@@H]2CC[C@@H]3CN2C(=O)N3OS(=O)(=O)O)o1` [Compound 722, (2S,5R)-2-(5-(2-(methylamino)ethyl)-1,3,4-oxadiazol-2-yl)-7-oxo-1,6-diazabicyclo[3.2.1]octan-6-yl hydrogen sulfate], the “more active than Avibactam … against KPC strains” value was “more active than Avibactam”. The result for `NC1CCN(CCc2nnc([C@@H]3CC[C@@H]4CN3C(=O)N4OS(=O)(=O)O)o2)CC1` [Compound 775, (2S,5R)-2-(5-(2-(4-aminopiperidin-1-yl)ethyl)-1,3,4-oxadiazol-2-yl)-7-oxo-1,6-diazabicyclo[3.2.1]octan-6-yl hydrogen sulfate] reads “more active than Avibactam”; that for `O=C1N2C[C@@H](CC[C@H]2c2nnc([C@H]3[C@@H]4CNC[C@@H]43)o2)N1OS(=O)(=O)O` [Compound 740, (2S,5R)-2-(5-(3-azabicyclo[3.1.0]hexan-6-yl)-1,3,4-oxadiazol-2-yl)-7-oxo-1,6-diazabicyclo[3.2.1]octan-6-yl hydrogen sulfate], “more active than Avibactam”.

For the molecule `N=C(N)NC[C@@H](O)c1nnc([C@@H]2CC[C@@H]3CN2C(=O)N3OS(=O)(=O)O)o1` [Compound 731, (2S,5R)-2-(5-((R)-2-guanidino-1-hydroxyethyl)-1,3,4-oxadiazol-2-yl)-7-oxo-1,6-diazabicyclo[3.2.1]octan-6-yl hydrogen sulfate], the “more active than Avibactam … against KPC strains” value is given as “more active than Avibactam”.

With `NCCc1nnc([C@@H]2CC[C@@H]3CN2C(=O)N3OS(=O)(=O)O)o1` [Compound 703, (2S,5R)-2-(5-(2-aminoethyl)-1,3,4-oxadiazol-2-yl)-7-oxo-1,6-diazabicyclo[3.2.1]octan-6-yl hydrogen sulfate], the “more active than Avibactam … against KPC strains” value was “more active than Avibactam”. Take `N[C@H]1C[C@@H](CCc2nnc([C@@H]3CC[C@@H]4CN3C(=O)N4OS(=O)(=O)O)o2)C1` [Compound 754, (2S,5R)-2-(5-(2-((1s,3S)-3-aminocyclobutyl)ethyl)-1,3,4-oxadiazol-2-yl)-7-oxo-1,6-diazabicyclo[3.2.1]octan-6-yl hydrogen sulfate]: the “more active than Avibactam … against KPC strains” value is “more active than Avibactam”. Take `O=C1N2C[C@@H](CC[C@H]2c2nnc([C@@H]3CCNC3)o2)N1OS(=O)(=O)O` [Compound 759, (2S,5R)-7-oxo-2-(5-((R)-pyrrolidin-3-yl)-1,3,4-oxadiazol-2-yl)-1,6-diazabicyclo[3.2.1]octan-6-yl hydrogen sulfate]: the “more active than Avibactam … against KPC strains” value is reported as “more active than Avibactam”.
